# Assay: physchem
# Assay type: physicochemical
# Method: Excess amounts of DRF-(5S,20S)-1042 were added to aqueous solutions of HPBCD with concentrations ranging from 0-40% w/v and the suspensions were shaken at 200 rpm and 25° C. in an incubator shaker, till no further DRF-(5S,20S)-1042 went into solution. The solutions were filtered through a 0.22 μm membrane filter and subjected to analysis by HPLC by a process described above. The results are described in Table 3 and in FIG. 1.
compound,measurement,setting,value
"CC[C@@]1(O)C(=O)OCc2c1cc1n(c2=O)[C@@H](OCCO)c2cc3ccccc3nc2-1 [DRF-(5S,20S)-1042, 5(S)-(2′-hydroxyethoxy)-20(S)-camptothecin]",increase in aqueous solubility and solubility in bio-relevant media vs uncomplexed state,,more than 50 fold
same,increase in aqueous solubility when compared with water alone,,over 50 fold
same,solubility,"25 °C, water, thermodynamic from solid, Solubility",20 µg/mL

# Source: patent publication US20110177161A1, “PHARMACEUTICAL COMPOSITIONS OF [5(S)-(2'-HYDROXYETHOXY)-20(S)-CAMPTOTHECIN” (DR. REDDY'S LABORATORIES LIMITED, priority 2007, published 2011)
